US10189774B2 (priority 2006, dated 2019)
“And” between values parts separate entries of the source, which are not always exact repeats. Equal values may be shown once. Read-outs that look alike come from different tables or passages of the source.

How the values were obtained:
[1] = pH 7.4
[2] = tested on: human myeloma cell line derived from the ascites of a patient with multiple myeloma; conditions: mouse, in vivo
[3] = tested on: Human Gastric Cancer HGC-27 cell; test: cells; type: cell-based; conditions: for EC50: Homo sapiens, HGC-27, 72 h, read-out: EC50, HGC-27 cell growth inhibition; for HGC-27 cell growth inhibition rate: 72 hours
physchem = conditions: water

CS(=O)(=O)CCN(CCS(C)(=O)=O)c1ccc(CCCC(=O)O)cc1 [4-[bis(2-methylsulfonylethyl)amino]benzenebutanoic acid]
In vitro penetration rate (apparent flux) of parent compounds ([1]; human): 0.01 mg/cm^2/h

CCN(CC)CCOC(=O)CCCc1ccc(N(CCS(C)(=O)=O)CCS(C)(=O)=O)cc1.Cl [diethylaminoethyl 4-[bis(2-methylsulfonylethyl)amino]benzenebutyrate.HCl]
Life Elongation Rate [2]: 269% and 244%
None Disease Rate [2]: 4/7 and 3/7
Survival Period [2]: 122.5 ± 1.7 days and 111.2 ± 1.9 days

N[C@@H](Cc1ccc(N(CCCl)CCCl)cc1)C(=O)O [melphalan]
In vitro penetration rate (apparent flux) of parent compounds ([1]; human): 0.01 mg/cm^2/h
Life Elongation Rate [2]: 195% and 122%
Survival Period [2]: 88.5 ± 1.8 days and 55.7 ± 1.3 days

CC(=O)O[C@H]1C(=O)[C@@]2(C)[C@H]([C@H](OC(=O)c3ccccc3)[C@]3(O)C[C@H](OC(=O)[C@H](O)[C@@H](NC(=O)c4ccccc4)c4ccccc4)C(C)=C1C3(C)C)[C@]1(OC(C)=O)CO[C@@H]1C[C@@H]2O [taxol, Taxol]
EC50 [3]: ~0.013 µM
HGC-27 cell growth inhibition rate ([3]; final concentration 0.5 nM): 10.3%
HGC-27 cell growth inhibition rate ([3]; final concentration 1 nm): 21.6%
HGC-27 cell growth inhibition rate ([3]; final concentration 10 nm): 45.0%
HGC-27 cell growth inhibition rate ([3]; final concentration 25 nm): 76.9%
HGC-27 cell growth inhibition rate ([3]; final concentration 50 nm): 85.2%
HGC-27 cell growth inhibition rate ([3]; final concentration 100 nm): 92.2%
HGC-27 cell growth inhibition rate ([3]; final concentration 500 nm): 94.7%
HGC-27 cell growth inhibition rate ([3]; final concentration 5000 nm): 95.8%

CCN(CC)CCOC(=O)CCCc1ccc(N(CCCl)CCCl)cc1 [N,N-diethylaminoethyl 4-[bis(2-chloroethyl)amino]benzenebutyrate]
EC50 [3]: < 6 µM
HGC-27 cell growth inhibition rate ([3]; final concentration 0.5 μm): 25.5%
HGC-27 cell growth inhibition rate ([3]; final concentration 2 μm): 34.7%
HGC-27 cell growth inhibition rate ([3]; final concentration 5 μm): 46.9%
HGC-27 cell growth inhibition rate ([3]; final concentration 25 μm): 54.6%
HGC-27 cell growth inhibition rate ([3]; final concentration 50 μm): 81.6%
HGC-27 cell growth inhibition rate ([3]; final concentration 75 μm): 93.4%
HGC-27 cell growth inhibition rate ([3]; final concentration 100 μm): 94.7%
HGC-27 cell growth inhibition rate ([3]; final concentration 200 μm): 94.8%
HGC-27 cell growth inhibition rate ([3]; final concentration 500 μm): 94.8%

O=C(O)CCCc1ccc(N(CCCl)CCCl)cc1 [chlorambucil]
EC50 [3]: > 100 µM
HGC-27 cell growth inhibition rate ([3]; final concentration 2 μm): 0.3%
HGC-27 cell growth inhibition rate ([3]; final concentration 5 μm): 1.6%
HGC-27 cell growth inhibition rate ([3]; final concentration 25 μm): 25.0%
HGC-27 cell growth inhibition rate ([3]; final concentration 50 μm): 34.9%
HGC-27 cell growth inhibition rate ([3]; final concentration 75 μm): 34.2%
HGC-27 cell growth inhibition rate ([3]; final concentration 100 μm): 39.2%
HGC-27 cell growth inhibition rate ([3]; final concentration 200 μm): 47.7%
HGC-27 cell growth inhibition rate ([3]; final concentration 500 μm): 81.0%
In vitro penetration rate (apparent flux) of parent compounds ([1]; human): 0.01 mg/cm^2/h
Life Elongation Rate [2]: 127% and 198%
None Disease Rate [2]: 2/7 and 3/7
Survival Period [2]: 57.8 ± 1.5 days and 90.2 ± 1.9 days

Br.CCN(CC)CCOC(=O)CCCc1ccc(N(CCCl)CCCl)cc1 [N,N-diethylaminoethyl 4-[bis(2-chloroethyl)amino]benzenebutyrate.HBr]
In vitro penetration rate (apparent flux) of HPPs [1]: 1.01 mg/cm^2/h
Life Elongation Rate [2]: 282% and 253%
None Disease Rate [2]: 4/7
Survival Period [2]: 128.5 ± 1.3 days and 115.2 ± 2.1 days

Br.CCN(CC)CCOC(=O)[C@H](Cc1ccc(N(CCCl)CCCl)cc1)NC(C)=O [4-[bis(2-chloroethyl)amino]-N-acetyl-L-phenylalanine N,N-diethylaminoethyl ester hydrobromide]
In vitro penetration rate (apparent flux) of HPPs ([1]; human): 1.10 mg/cm^2/h
Life Elongation Rate ([2]; hydrobromide): 287% and 266%
None Disease Rate ([2]; hydrobromide): 4/7 and 3/7
Survival Period ([2]; hydrobromide): 130.5 ± 1.6 days and 121.2 ± 1.8 days
solubility (physchem): 300 mg/mL

Br.CCN(CC)CCOC(=O)CCCc1ccc(N(CCS(C)(=O)=O)CCS(C)(=O)=O)cc1 [diethylaminoethyl 4-[bis(2-methylsulfonylethyl)amino]benzenebutyrate•HBr]
In vitro penetration rate (apparent flux) of HPPs [1]: 0.94 mg/cm^2/h
